In patent publication US8227508B2, “Dietary and pharmaceutical compositions containing carnosol and/or rosmanol and their uses” (DSM IP Assets B.V., priority 2006, dated 2012):

Tests used:
mouse [1] = experiment: Four Plates Test; format: in vivo; details: 32 mg/kg p.o. −1 h (vehicle at −24 h and −5 h)
Source text: The method, which detects anxiolytic activity, follows that described by Aron et al (1971, Neuropharmacology, 10:459-469). Anxiolytics (benzodiazepines) increase the number of punished crossings. Animals were placed individually in a white plastic enclosure containing a floor consisting of 4 metal plates connected to an electric shock generator (Apelex: type 011346). Each mouse was left to explore freely for 15 seconds. Then, every time it crossed from one plate to another, it received a weak electric shock (2.5 mA, 1.5 s). The number of punished crossings was counted during a 1 minute test. 15 mice were studied per group. The test was performed blind.
Carnosol was evaluated at 3 doses (200, 400, 600 mg/kg), administered p.o. 24 h, 5 h and 1 h before the test, and compared with a vehicle control (corn oil) group.
Clobazam (32 mg/kg p.o.), administered 1 h before the test, was used as reference substance. Mice in this group received additional administrations of vehicle at 24 h and 5 h before the test in order to maintain experimental blinding.

mouse [2] = experiment: Marble burying test; format: in vivo; details: 32 mg/kg i.p., −30 min
Description: The method applied here follows that described by Broekkamp et al. (1986). Mice (n=15 per treatment group) were individually placed in transparent plastic cages (33×21×18 cm) with 5 cm of sawdust on the floor and 25 marbles (diameter 1 cm) grouped in the centre of the cage. A second, up-turned, cage served as a lid. The number of marbles covered by sawdust (by at least two-thirds) was counted at the end of the 30-min test period. Tests were performed by investigators blind to the drug treatment protocol.
Prior to testing, all test cages and marbles were “impregnated” by leaving 10 naive mice in each cage for 15 minutes.
Carnosol (3, 10 and 30 mg/kg) and rosmanol (10, 30 and 100 mg/kg) were administered i.p. 30 min before the test, and compared with a vehicle control group. Fluoxetine (32 mg/kg), administered under the same experimental conditions, was used as a reference substance.

[3] = molecular target: T1, human glycine transporter 1b (GlyT1) (Homo sapiens, UniProt P48067); experiment: Glycine uptake inhibition in CHO cells expressing GlyT1; format: cell-based; details: 60 nM [3H]-glycine, read-out: IC50 for tritiated glycine uptake
T1 construct: expressed in transfected cells; host or cells: CHO
T1 sequence (P48067 1-652 isoform P48067-3): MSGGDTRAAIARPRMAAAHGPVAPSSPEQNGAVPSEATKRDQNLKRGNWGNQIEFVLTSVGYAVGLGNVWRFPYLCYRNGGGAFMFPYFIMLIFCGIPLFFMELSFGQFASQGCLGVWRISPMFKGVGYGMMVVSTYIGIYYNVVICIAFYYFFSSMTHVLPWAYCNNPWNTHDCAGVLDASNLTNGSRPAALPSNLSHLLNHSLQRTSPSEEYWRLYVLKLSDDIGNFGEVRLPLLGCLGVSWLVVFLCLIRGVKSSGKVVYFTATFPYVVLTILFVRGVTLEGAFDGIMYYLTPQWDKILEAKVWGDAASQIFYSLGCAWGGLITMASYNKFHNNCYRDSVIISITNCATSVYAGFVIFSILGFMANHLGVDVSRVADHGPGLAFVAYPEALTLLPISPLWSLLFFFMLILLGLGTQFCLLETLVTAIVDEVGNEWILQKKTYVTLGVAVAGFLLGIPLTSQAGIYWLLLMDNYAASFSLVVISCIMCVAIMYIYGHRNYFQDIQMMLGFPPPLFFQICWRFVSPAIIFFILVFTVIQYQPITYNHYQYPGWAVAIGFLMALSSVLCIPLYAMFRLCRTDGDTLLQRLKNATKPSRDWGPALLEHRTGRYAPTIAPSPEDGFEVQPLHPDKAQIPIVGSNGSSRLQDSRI
Description: CHO cells stably expressing the human glycine transporter 1b cDNA (GlyT1) were routinely grown in Dulbecco's Modified Eagle's Medium (Invitrogen, Carlsbad, USA) containing 10% dialysed foetal calf serum, penicillin, streptomycin, proline and the antibiotic G418. Cells were harvested by trypsinisation one day prior to the assay and were seeded in the above mentioned medium. Immediately prior to the assay, the medium was replaced by uptake buffer containing 150 mM NaCl, 1 mM CaCl2, 2.5 mM KCl, 2.5 mM MgCl2, 10 mM Glucose and 10 mM N-2-hydroxyethylpiperazine-N′-2-ethanesulfonic acid (HEPES buffer).
Glycine uptake into the cells was determined by addition of 60 nM radiolabelled [^3H]-glycine (Amersham Biosciences GE Healthcare, Slough, UK) and incubation for 30 minutes at room temperature. Following removal of unincorporated label by gentle washing three times with the above buffer, incorporated glycine was quantified by liquid scintillation counting.

mouse [4] = experiment: Porsolt's Forced Swim Test (FST); format: in vivo
Description: The Forced Swim Test (FST) was first reported in 1977 for screening of antidepressant-like compounds in rats (Porsolt et al 1977 Nature, 266:730-732) and, later, modified for testing mice (Porsolt et al 1977 Arch. Int. Pharmacodynamie, 229:327-336).
In two separate experiments, mice were tested following either i.p. or p.o. administration of carnosol. Mice were individually placed in a cylinder containing water (22° C.) from which they could not escape. The mice were placed in the water for 6 min and the duration of immobility during the last 4 min was measured. Ten to fifteen mice were studied per group. Carnosol was evaluated at 3, 10, 30 mg/kg body weight (i.p. 30 min before the test) or 200, 400, 600 mg/kg body weight (p.o., 24, 5 and 1 h before the test), and compared with vehicle control groups. Imipramine (32 mg/kg i.p., or p.o., respectively), administered under the same experimental conditions, was used as reference substance. Immobility and swimming time were assessed.

`CN1C(=O)CC(=O)N(c2ccccc2)c2cc(Cl)ccc21` [Clobazam, reference compound] was tested, and the “Number of punished crossings, % change from control” value (mouse [1]) was “+118%” and the “Number of punished crossings, mean” value (mouse [1]) was 6.1.
In the case of `CNCCC(Oc1ccc(C(F)(F)F)cc1)c1ccccc1` (stereo not drawn) [Fluoxetine, fluoxetine, reference compound], the “Number of marbles buried (% change from control)” value (mouse [2]) is reported as −92%.
Molecule `CN(CC[C@@H](Oc1ccc(C(F)(F)F)cc1)c1ccccc1)CC(=O)O` [ORG24598, reference compound] has an IC50 [3] of 20 nM.
`CN(C)CCCN1c2ccccc2CCc2ccccc21` [imipramine, reference compound] was tested, and the “Duration of immobility (% change from control)” value (mouse [4]; 32 mg/kg i.p., −30 min) was −80% and the “Duration of immobility (% change from control)” value (mouse [4]; 32 mg/kg p.o., −24, −5, −1 h) was −48%.
